Reference: PubChem BioAssay (NCI)
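Each compound was tested at five concentrations against cells in 96-well plates for 48 hours. Definition used: TGI = concentration required for complete inhibition of growth.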

Tests used:
Test in all cases: DTP human tumour cell line panel, 48 h
DU-145 prostate = test system: DU-145 prostate
RXF 393 renal = test system: RXF 393 renal
SN12C renal = test system: SN12C renal
HL-60(TB) leukemia = test system: HL-60(TB) leukemia
HCC-2998 colon = test system: HCC-2998 colon
HT29 colon = test system: HT29 colon
CCRF-CEM leukemia = test system: CCRF-CEM leukemia
SF-539 CNS = test system: SF-539 CNS
NCI/ADR-RES ovarian = test system: NCI/ADR-RES ovarian
EKVX NSCLC = test system: EKVX NSCLC
KM12 colon = test system: KM12 colon
SK-OV-3 ovarian = test system: SK-OV-3 ovarian
UACC-257 melanoma = test system: UACC-257 melanoma
A549 NSCLC = test system: A549 NSCLC
MALME-3M melanoma = test system: MALME-3M melanoma
UACC-62 melanoma = test system: UACC-62 melanoma
OVCAR-3 ovarian = test system: OVCAR-3 ovarian
MDA-MB-231 breast = test system: MDA-MB-231 breast
HCT-15 colon = test system: HCT-15 colon
ACHN renal = test system: ACHN renal
HOP-92 NSCLC = test system: HOP-92 NSCLC
MDA-N = test system: MDA-N
786-0 renal = test system: 786-0 renal
NCI-H460 lung = test system: NCI-H460 lung
SK-MEL-2 melanoma = test system: SK-MEL-2 melanoma
M14 melanoma = test system: M14 melanoma
T-47D breast = test system: T-47D breast
OVCAR-5 ovarian = test system: OVCAR-5 ovarian
SK-MEL-28 melanoma = test system: SK-MEL-28 melanoma
SF-268 CNS = test system: SF-268 CNS
NCI-H522 lung = test system: NCI-H522 lung
HOP-62 NSCLC = test system: HOP-62 NSCLC
SW-620 colon = test system: SW-620 colon
OVCAR-8 ovarian = test system: OVCAR-8 ovarian
IGROV1 ovarian = test system: IGROV1 ovarian
HCT-116 colon = test system: HCT-116 colon
RPMI-8226 leukemia = test system: RPMI-8226 leukemia
NCI-H226 lung = test system: NCI-H226 lung
MDA-MB-435 = test system: MDA-MB-435
SF-295 CNS = test system: SF-295 CNS
UO-31 renal = test system: UO-31 renal
PC-3 prostate = test system: PC-3 prostate
TK-10 renal = test system: TK-10 renal
SK-MEL-5 melanoma = test system: SK-MEL-5 melanoma
HS 578T breast = test system: HS 578T breast
OVCAR-4 ovarian = test system: OVCAR-4 ovarian
K-562 leukemia = test system: K-562 leukemia
U251 CNS = test system: U251 CNS
NCI-H23 lung = test system: NCI-H23 lung
MCF7 breast = test system: MCF7 breast
CAKI-1 renal = test system: CAKI-1 renal
SR leukemia = test system: SR leukemia
COLO 205 colon = test system: COLO 205 colon
SNB-19 CNS = test system: SNB-19 CNS
LOX IMVI melanoma = test system: LOX IMVI melanoma
MOLT-4 leukemia = test system: MOLT-4 leukemia
BT-549 breast = test system: BT-549 breast
A498 renal = test system: A498 renal
SNB-75 CNS = test system: SNB-75 CNS

Question: `CC(=O)NC(CS/N=N/c1nc[nH]c1C(N)=O)C(=O)O` (stereo not drawn) was tested. Which TGI (DU-145 prostate) did it give?
Answer: > 100 µM

Question: And the TGI (RXF 393 renal)?
Answer: > 100 µM

Question: What about the TGI (SN12C renal) of the same compound?
Answer: > 55.9 µM

Question: What about the TGI (HL-60(TB) leukemia) of the same compound?
Answer: > 23.7 µM

Question: What about the TGI (HCC-2998 colon) of the same compound?
Answer: > 27.9 µM

Question: And the TGI (HT29 colon)?
Answer: > 100 µM

Question: And the TGI (CCRF-CEM leukemia)?
Answer: > 23.1 µM

Question: What about the TGI (SF-539 CNS) of the same compound?
Answer: > 100 µM

Question: What about the TGI (NCI/ADR-RES ovarian) of the same compound?
Answer: > 100 µM

Question: And the TGI (EKVX NSCLC)?
Answer: > 100 µM

Question: What about the TGI (KM12 colon) of the same compound?
Answer: > 45.3 µM

Question: And the TGI (SK-OV-3 ovarian)?
Answer: > 100 µM

Question: And the TGI (UACC-257 melanoma)?
Answer: > 100 µM

Question: And the TGI (A549 NSCLC)?
Answer: > 100 µM

Question: What about the TGI (MALME-3M melanoma) of the same compound?
Answer: > 29.3 µM

Question: What about the TGI (UACC-62 melanoma) of the same compound?
Answer: > 100 µM

Question: What about the TGI (OVCAR-3 ovarian) of the same compound?
Answer: > 100 µM

Question: What about the TGI (MDA-MB-231 breast) of the same compound?
Answer: > 27.8 µM

Question: What about the TGI (HCT-15 colon) of the same compound?
Answer: > 100 µM

Question: And the TGI (ACHN renal)?
Answer: > 100 µM

Question: And the TGI (HOP-92 NSCLC)?
Answer: > 100 µM

Question: And the TGI (MDA-N)?
Answer: > 100 µM

Question: And the TGI (786-0 renal)?
Answer: > 100 µM

Question: And the TGI (NCI-H460 lung)?
Answer: > 100 µM

Question: What about the TGI (SK-MEL-2 melanoma) of the same compound?
Answer: > 100 µM

Question: And the TGI (M14 melanoma)?
Answer: > 100 µM

Question: What about the TGI (T-47D breast) of the same compound?
Answer: > 100 µM

Question: What about the TGI (OVCAR-5 ovarian) of the same compound?
Answer: > 100 µM

Question: And the TGI (SK-MEL-28 melanoma)?
Answer: > 100 µM

Question: And the TGI (SF-268 CNS)?
Answer: > 100 µM

Question: What about the TGI (NCI-H522 lung) of the same compound?
Answer: > 100 µM

Question: And the TGI (HOP-62 NSCLC)?
Answer: > 100 µM

Question: And the TGI (SW-620 colon)?
Answer: > 100 µM

Question: And the TGI (OVCAR-8 ovarian)?
Answer: > 100 µM

Question: And the TGI (IGROV1 ovarian)?
Answer: > 100 µM

Question: What about the TGI (HCT-116 colon) of the same compound?
Answer: > 100 µM

Question: What about the TGI (RPMI-8226 leukemia) of the same compound?
Answer: > 31.6 µM

Question: And the TGI (NCI-H226 lung)?
Answer: > 100 µM

Question: What about the TGI (MDA-MB-435) of the same compound?
Answer: > 100 µM

Question: And the TGI (SF-295 CNS)?
Answer: > 100 µM

Question: What about the TGI (UO-31 renal) of the same compound?
Answer: > 100 µM

Question: What about the TGI (PC-3 prostate) of the same compound?
Answer: > 100 µM

Question: What about the TGI (TK-10 renal) of the same compound?
Answer: > 100 µM

Question: And the TGI (SK-MEL-5 melanoma)?
Answer: > 100 µM

Question: What about the TGI (HS 578T breast) of the same compound?
Answer: > 100 µM

Question: What about the TGI (OVCAR-4 ovarian) of the same compound?
Answer: > 100 µM

Question: What about the TGI (K-562 leukemia) of the same compound?
Answer: > 100 µM

Question: And the TGI (U251 CNS)?
Answer: > 100 µM

Question: And the TGI (NCI-H23 lung)?
Answer: > 100 µM

Question: What about the TGI (MCF7 breast) of the same compound?
Answer: > 100 µM

Question: And the TGI (CAKI-1 renal)?
Answer: > 41.2 µM

Question: And the TGI (SR leukemia)?
Answer: 0.0673 µM

Question: And the TGI (COLO 205 colon)?
Answer: > 100 µM

Question: And the TGI (SNB-19 CNS)?
Answer: > 100 µM

Question: And the TGI (LOX IMVI melanoma)?
Answer: > 100 µM

Question: What about the TGI (MOLT-4 leukemia) of the same compound?
Answer: > 36.1 µM

Question: And the TGI (BT-549 breast)?
Answer: > 100 µM

Question: What about the TGI (A498 renal) of the same compound?
Answer: > 100 µM

Question: What about the TGI (SNB-75 CNS) of the same compound?
Answer: > 100 µM

Question: What does the source list for `CC(=O)Nc1cc([As](=O)(O)O)ccc1O`?
Answer: TGI (DU-145 prostate): > 100 µM; TGI (RXF 393 renal): > 100 µM; TGI (SN12C renal): > 100 µM; TGI (HL-60(TB) leukemia): > 100 µM; TGI (HCC-2998 colon): > 100 µM; TGI (HT29 colon): > 100 µM; TGI (CCRF-CEM leukemia): > 100 µM; TGI (SF-539 CNS): > 100 µM; TGI (NCI/ADR-RES ovarian): > 100 µM; TGI (EKVX NSCLC): > 100 µM; TGI (KM12 colon): > 100 µM; TGI (SK-OV-3 ovarian): > 100 µM; TGI (UACC-257 melanoma): > 100 µM; TGI (A549 NSCLC): > 100 µM; TGI (MALME-3M melanoma): > 100 µM; TGI (UACC-62 melanoma): > 100 µM; TGI (OVCAR-3 ovarian): > 100 µM; TGI (MDA-MB-231 breast): > 100 µM; TGI (HCT-15 colon): > 100 µM; TGI (ACHN renal): > 100 µM; TGI (HOP-92 NSCLC): > 100 µM; TGI (MDA-N): > 100 µM; TGI (786-0 renal): > 100 µM; TGI (NCI-H460 lung): > 100 µM; TGI (SK-MEL-2 melanoma): > 100 µM; TGI (M14 melanoma): > 100 µM; TGI (T-47D breast): > 100 µM; TGI (OVCAR-5 ovarian): > 100 µM; TGI (SK-MEL-28 melanoma): > 100 µM; TGI (SF-268 CNS): > 100 µM; TGI (NCI-H522 lung): > 100 µM; TGI (HOP-62 NSCLC): > 100 µM; TGI (SW-620 colon): > 100 µM; TGI (OVCAR-8 ovarian): > 100 µM; TGI (IGROV1 ovarian): > 100 µM; TGI (HCT-116 colon): > 100 µM; TGI (RPMI-8226 leukemia): > 100 µM; TGI (NCI-H226 lung): > 100 µM; TGI (MDA-MB-435): > 100 µM; TGI (SF-295 CNS): > 100 µM; TGI (UO-31 renal): > 100 µM; TGI (PC-3 prostate): > 100 µM; TGI (TK-10 renal): > 100 µM; TGI (SK-MEL-5 melanoma): > 100 µM; TGI (HS 578T breast): > 100 µM; TGI (OVCAR-4 ovarian): > 100 µM; TGI (K-562 leukemia): > 100 µM; TGI (U251 CNS): > 100 µM; TGI (NCI-H23 lung): > 100 µM; TGI (MCF7 breast): > 100 µM; TGI (CAKI-1 renal): > 100 µM; TGI (SR leukemia): > 100 µM; TGI (COLO 205 colon): > 100 µM; TGI (SNB-19 CNS): > 100 µM; TGI (LOX IMVI melanoma): > 100 µM; TGI (MOLT-4 leukemia): > 100 µM; TGI (BT-549 breast): > 100 µM; TGI (A498 renal): > 100 µM; TGI (SNB-75 CNS): > 100 µM
